Experimental data taken from patent US12319664B2, “Herbicidally active 3-phenylisoxazoline-5-carboxamides of cyclopentenylcarboxylic acid derivatives” (Bayer Aktiengesellschaft, priority 2018, dated 2025).

How the values were obtained:
ECHCG = assay: Post-emergence herbicidal action against ECHCG; assay type: in vivo, Echinochloa crus-galli; conditions: application rate 80 g/ha, rated visually after about 3 weeks
Procedure, shortened: (§1)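 Greenhouse pot test in sandy loam; plants sprayed at the one-leaf stage, 2 to 3 weeks after sowing, with WP or EC formulations as aqueous suspension/emulsion plus 0.5% additive at 600 l/ha water. Visual rating after about 3 weeks against untreated controls (100% = plants died, 0% = like control).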

STEME = assay: Post-emergence herbicidal action against STEME; assay type: in vivo, Stellaria media; conditions: application rate 80 g/ha, rated visually about 3 weeks after treatment
Procedure, shortened: as §1

AMARE = assay: Post-emergence herbicidal action against AMARE; assay type: in vivo, Amaranthus retroflexus; conditions: application rate 80 g/ha, rated visually about 3 weeks after treatment
Procedure, shortened: as §1

LOLRI = assay: Post-emergence herbicidal action against LOLRI; assay type: in vivo, Lolium rigidum; conditions: application rate 80 g/ha, rated visually after about 3 weeks
Procedure, shortened: as §1

HORMU = assay: Post-emergence herbicidal action against HORMU; assay type: in vivo, Hordeum murinum; conditions: application rate 80 g/ha
Procedure, shortened: as §1

PHBPU = assay: Post-emergence herbicidal action against PHBPU; assay type: in vivo, Pharbitis purpurea; conditions: application rate 80 g/ha, rated visually about 3 weeks after treatment
Procedure, shortened: as §1

ABUTH = assay: Post-emergence herbicidal action against ABUTH; assay type: in vivo, Abutilon theophrasti; conditions: application rate 80 g/ha, rated visually about 3 weeks after treatment
Procedure, shortened: as §1

POLCO = assay: Post-emergence herbicidal action against POLCO; assay type: in vivo, Polygonum convolvulus; conditions: application rate 80 g/ha, rated visually about 3 weeks after treatment
Procedure, shortened: as §1

SETVI = assay: Post-emergence herbicidal action against SETVI; assay type: in vivo, Setaria viridis; conditions: application rate 80 g/ha, rated visually after about 3 weeks
Procedure, shortened: as §1

ALOMY = assay: Post-emergence herbicidal action against ALOMY; assay type: in vivo, Alopecurus myosuroides; conditions: application rate 80 g/ha, rated visually after about 3 weeks
Procedure, shortened: as §1

AVEFA = assay: Post-emergence herbicidal action against AVEFA; assay type: in vivo, Avena fatua; conditions: application rate 80 g/ha, rated visually after about 3 weeks
Procedure, shortened: as §1

VERPE = assay: Post-emergence herbicidal action against VERPE; assay type: in vivo, Veronica persica; conditions: application rate 80 g/ha
Procedure, shortened: as §1

VIOTR = assay: Post-emergence herbicidal action against VIOTR; assay type: in vivo, Viola tricolor; conditions: application rate 80 g/ha, rated visually about 3 weeks after treatment
Procedure, shortened: as §1

MATIN = assay: Post-emergence herbicidal action against MATIN; assay type: in vivo, Matricaria inodora; conditions: application rate 80 g/ha, rated visually about 3 weeks after treatment
Procedure, shortened: as §1

C=CC1(C(=O)NC2C=CC(C(=O)OCCCl)C2)CC(c2cc(F)cc(F)c2)=NO1 (mixture of isomers) [Example I-061]
80%: Herbicidal action against [%] PHBPU (PHBPU) | Herbicidal action against [%] ABUTH (ABUTH) | Herbicidal action against [%] VIOTR (VIOTR) | Herbicidal action against [%] MATIN (MATIN)
90%: Herbicidal action against [%] STEME (STEME) | Herbicidal action against [%] AMARE (AMARE) | Herbicidal action against [%] LOLRI (LOLRI) | Herbicidal action against [%] HORMU (HORMU) | Herbicidal action against [%] POLCO (POLCO) | Herbicidal action against [%] SETVI (SETVI) | Herbicidal action against [%] ALOMY (ALOMY) | Herbicidal action against [%] VERPE (VERPE)
100%: Herbicidal action against [%] ECHCG (ECHCG) | Herbicidal action against [%] AVEFA (AVEFA)

COC(=O)C1C=CC(NC(=O)C2(C(F)(F)F)CC(c3cc(F)cc(F)c3)=NO2)C1 (mixture of isomers) [Example I-063]
100%: Herbicidal action against [%] LOLRI (LOLRI) | Herbicidal action against [%] AVEFA (AVEFA)
80%: Herbicidal action against [%] PHBPU (PHBPU) | Herbicidal action against [%] VERPE (VERPE) | Herbicidal action against [%] VIOTR (VIOTR)
90%: Herbicidal action against [%] ECHCG (ECHCG) | Herbicidal action against [%] STEME (STEME) | Herbicidal action against [%] AMARE (AMARE) | Herbicidal action against [%] HORMU (HORMU) | Herbicidal action against [%] ABUTH (ABUTH) | Herbicidal action against [%] POLCO (POLCO) | Herbicidal action against [%] SETVI (SETVI) | Herbicidal action against [%] ALOMY (ALOMY) | Herbicidal action against [%] MATIN (MATIN)

CC(C)OC(=O)C1C=CC(NC(=O)C2(C(F)(F)F)CC(c3cc(F)cc(F)c3)=NO2)C1 (mixture of isomers) [Example I-064]
100%: Herbicidal action against [%] LOLRI (LOLRI) | Herbicidal action against [%] AVEFA (AVEFA)
80%: Herbicidal action against [%] STEME (STEME) | Herbicidal action against [%] PHBPU (PHBPU) | Herbicidal action against [%] ABUTH (ABUTH) | Herbicidal action against [%] VERPE (VERPE) | Herbicidal action against [%] VIOTR (VIOTR)
90%: Herbicidal action against [%] ECHCG (ECHCG) | Herbicidal action against [%] AMARE (AMARE) | Herbicidal action against [%] HORMU (HORMU) | Herbicidal action against [%] POLCO (POLCO) | Herbicidal action against [%] SETVI (SETVI) | Herbicidal action against [%] ALOMY (ALOMY) | Herbicidal action against [%] MATIN (MATIN)

O=C(OCc1ccccc1)C1C=CC(NC(=O)C2(C(F)(F)F)CC(c3cc(F)cc(F)c3)=NO2)C1 (mixture of isomers) [Example I-065]
90%: Herbicidal action against [%] ECHCG (ECHCG) | Herbicidal action against [%] STEME (STEME) | Herbicidal action against [%] LOLRI (LOLRI) | Herbicidal action against [%] HORMU (HORMU) | Herbicidal action against [%] POLCO (POLCO) | Herbicidal action against [%] SETVI (SETVI) | Herbicidal action against [%] ALOMY (ALOMY) | Herbicidal action against [%] AVEFA (AVEFA) | Herbicidal action against [%] VIOTR (VIOTR)
80%: Herbicidal action against [%] AMARE (AMARE) | Herbicidal action against [%] PHBPU (PHBPU) | Herbicidal action against [%] ABUTH (ABUTH) | Herbicidal action against [%] VERPE (VERPE) | Herbicidal action against [%] MATIN (MATIN)

O=C(OCCCl)C1C=CC(NC(=O)C2(C(F)(F)F)CC(c3cc(F)cc(F)c3)=NO2)C1 (mixture of isomers) [Example I-067]
90%: Herbicidal action against [%] ECHCG (ECHCG) | Herbicidal action against [%] STEME (STEME) | Herbicidal action against [%] LOLRI (LOLRI) | Herbicidal action against [%] HORMU (HORMU) | Herbicidal action against [%] POLCO (POLCO) | Herbicidal action against [%] SETVI (SETVI) | Herbicidal action against [%] ALOMY (ALOMY)
100%: Herbicidal action against [%] AVEFA (AVEFA)
80%: Herbicidal action against [%] AMARE (AMARE) | Herbicidal action against [%] PHBPU (PHBPU) | Herbicidal action against [%] ABUTH (ABUTH) | Herbicidal action against [%] VERPE (VERPE) | Herbicidal action against [%] VIOTR (VIOTR) | Herbicidal action against [%] MATIN (MATIN)
